In PubChem BioAssay AID651650 (Sanford-Burnham Center for Chemical Genomics, 2012):
pIC50: −log10 of the molar value. Active and inactive are the calls of the source.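 Rule for the calls: active = mean IC50 below 20 µM in each of the two panels, so potent in both; inactive = the rest.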

Biological target: Neuropilin-1 (Homo sapiens) (UniProt O14786)
Experiment: blockers of CendR peptide binding to NRP-1 – biochemical, FP and AlphaScreen panel, dose response (AID 651650)
Settings: NRP-1 b1b2 / RPARPAR peptide binding, FP or AlphaScreen
[1] = AlphaScreen, run 1, individual panel run IC50
[2] = FP, run 1, individual panel run IC50
[3] = FP, run 2, individual panel run IC50

Neuropilin-1 (Homo sapiens), sequence (O14786 whole entry, looked up): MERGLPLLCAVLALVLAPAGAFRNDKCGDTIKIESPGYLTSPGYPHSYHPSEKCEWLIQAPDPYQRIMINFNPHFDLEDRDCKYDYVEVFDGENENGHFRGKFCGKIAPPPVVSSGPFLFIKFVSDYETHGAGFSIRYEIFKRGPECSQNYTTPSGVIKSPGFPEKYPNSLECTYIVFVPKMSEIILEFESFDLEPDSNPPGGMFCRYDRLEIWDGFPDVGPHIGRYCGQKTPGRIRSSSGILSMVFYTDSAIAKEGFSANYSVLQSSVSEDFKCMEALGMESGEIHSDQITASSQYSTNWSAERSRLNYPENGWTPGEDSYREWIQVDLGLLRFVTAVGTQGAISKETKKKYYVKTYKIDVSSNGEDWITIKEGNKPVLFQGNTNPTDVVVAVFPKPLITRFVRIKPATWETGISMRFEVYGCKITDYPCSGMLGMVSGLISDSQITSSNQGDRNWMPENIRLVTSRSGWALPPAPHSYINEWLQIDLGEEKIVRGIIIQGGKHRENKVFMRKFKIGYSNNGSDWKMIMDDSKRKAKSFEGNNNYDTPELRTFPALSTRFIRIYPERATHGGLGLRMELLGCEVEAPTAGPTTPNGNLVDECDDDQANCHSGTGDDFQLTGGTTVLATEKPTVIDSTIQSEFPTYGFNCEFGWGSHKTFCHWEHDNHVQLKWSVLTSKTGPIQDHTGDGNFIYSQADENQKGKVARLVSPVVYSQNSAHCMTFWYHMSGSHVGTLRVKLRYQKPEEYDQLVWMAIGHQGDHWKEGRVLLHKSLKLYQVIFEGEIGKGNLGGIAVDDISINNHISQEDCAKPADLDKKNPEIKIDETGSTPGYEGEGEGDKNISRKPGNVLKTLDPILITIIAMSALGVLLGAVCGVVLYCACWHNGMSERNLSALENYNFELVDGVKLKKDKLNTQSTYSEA

SMILES | IC50 (AlphaScreen, mean of runs) | pIC50 [1] | IC50 (FP, mean of runs) | pIC50 [2] | pIC50 [3] | pIC50 (AlphaScreen, mean of runs)
CC(O)(c1cccnc1)c1nc(/C=C/c2ccccc2)cs1 (stereo not given) | > 100 µM (inactive) | < 4.00 | > 95 µM (inactive) | < 4.02 | < 4.02 | –
O=C(O)c1cc(NCc2ccc(F)cc2)ccc1N1CCOCC1 | > 100 µM (inactive) | < 4.00 | > 95 µM (inactive) | < 4.02 | < 4.02 | –
CCOc1ccc(S(=O)(=O)N2CCN(C(=O)c3sccc3C)CC2)cc1 | – | 4.84 | > 95 µM (inactive) | < 4.02 | < 4.02 | 4.84
O=C(O)c1ccc(C(=O)Nc2cccc3ccccc23)c(C(=O)O)c1 | inactive | 4.31 | > 95 µM (inactive) | < 4.02 | < 4.02 | –
CCc1ccc(OC(=O)CN2C(=O)c3ccccc3C2=O)cc1 | inactive | 4.50 | > 95 µM (inactive) | < 4.02 | < 4.02 | –
CCOc1ccccc1N1CCN(C(=O)c2ccncc2)CC1 | > 100 µM (inactive) | < 4.00 | > 95 µM (inactive) | < 4.02 | < 4.02 | –
CCC(=O)Nc1nc2nc(-c3ccccc3)cc(-c3ccccc3)n2n1 | > 100 µM (inactive) | < 4.00 | > 95 µM (inactive) | < 4.02 | < 4.02 | –
COc1ccc(CCNC(=O)c2c(O)c3cccc4c3n(c2=O)CC4)cc1OC | > 100 µM (inactive) | < 4.00 | > 95 µM (inactive) | < 4.02 | < 4.02 | –
COc1ccccc1C(=O)NC(=O)CSc1nncn1C | > 100 µM (inactive) | < 4.00 | > 95 µM (inactive) | < 4.02 | < 4.02 | –
Cc1nnc(NC(=O)c2ccccc2C(=O)O)s1 | – | 4.78 | > 95 µM (inactive) | < 4.02 | < 4.02 | 4.78
CCOc1ccc(S(=O)(=O)NNC(=O)c2cc3ccccc3o2)cc1 | > 100 µM (inactive) | < 4.00 | > 95 µM (inactive) | < 4.02 | < 4.02 | –
COc1ccc(CN2C(=O)c3ccccc3C2=O)cc1C(=O)Nc1ccccc1N1CCOCC1 | > 100 µM (inactive) | < 4.00 | > 95 µM (inactive) | < 4.02 | < 4.02 | –
NC(=O)C1CCCN(C(=O)c2ccc3nc(Cc4cccc(Cl)c4)oc3c2)C1 (stereo not given) | – | 4.97 | > 95 µM (inactive) | < 4.02 | < 4.02 | 4.97
Cc1csc(NC(C)c2nc3cc(C(F)(F)F)ccc3n2CCOCCO)n1 (stereo not given) | > 100 µM (inactive) | < 4.00 | > 95 µM (inactive) | < 4.02 | < 4.02 | –
Cc1ccc(C(=O)C2CN3CCC2CC3)cc1 (stereo not given) | > 100 µM (inactive) | < 4.00 | > 95 µM (inactive) | < 4.02 | < 4.02 | –
COc1ccc2c(c1OC)CN1CCc3cc4c(cc3[C@@H]1[C@@H]2O)OCO4 | > 100 µM (inactive) | < 4.00 | > 95 µM (inactive) | < 4.02 | < 4.02 | –
O=C(COc1ccc(Br)cc1CO)Nc1ccc(F)cc1 | > 100 µM (inactive) | < 4.00 | > 95 µM (inactive) | < 4.02 | < 4.02 | –
CCOc1cc(C(=O)NCCN2CCOCC2)cc(OCC)c1OCC | > 100 µM (inactive) | < 4.00 | > 95 µM (inactive) | < 4.02 | < 4.02 | –
Cc1ccc(C(=O)OCC(=O)c2ccc(Cl)s2)s1 | > 100 µM (inactive) | < 4.00 | > 95 µM (inactive) | < 4.02 | < 4.02 | –
Cc1ccsc1C(=O)N1CCCC(CO)(Cc2ccccc2F)C1 (stereo not given) | > 100 µM (inactive) | < 4.00 | > 95 µM (inactive) | < 4.02 | < 4.02 | –
Cc1cc(NC(=O)COC(=O)c2ccc(C)c(C)c2)no1 | > 100 µM (inactive) | < 4.00 | > 95 µM (inactive) | < 4.02 | < 4.02 | –
CC(=O)Nc1cc(F)c2c(c1F)Cc1cc(F)ccc1-2 | inactive | 4.05 | > 95 µM (inactive) | < 4.02 | < 4.02 | –
O=S1(=O)CCOC[C@H](Cc2ccccc2)N1Cc1ccccc1F | > 100 µM (inactive) | < 4.00 | > 95 µM (inactive) | < 4.02 | < 4.02 | –

SMILES | IC50 (AlphaScreen, mean of runs) | pIC50 [1] | IC50 (FP, mean of runs) | pIC50 [2] | pIC50 [3] | pIC50 (AlphaScreen, mean of runs)
C[C@@H]1CC=C[C@H]2[C@H]1C(=O)N(Cc1ccccc1)[C@H]2c1ccc(/C=C/c2ccccc2)cc1F | > 100 µM (inactive) | < 4.00 | > 95 µM (inactive) | < 4.02 | < 4.02 | –
CC(=O)Nc1ccc(NC(=O)C2CC(=O)N=C(N)S2)cc1 (stereo not given) | > 100 µM (inactive) | < 4.00 | > 95 µM (inactive) | < 4.02 | < 4.02 | –
O=C(Nc1cccc2c1CCCC2)c1cc(C2CCCCN2C(=O)CCCc2ccccc2)on1 (stereo not given) | > 100 µM (inactive) | < 4.00 | > 95 µM (inactive) | < 4.02 | < 4.02 | –
CN(C(=O)COC(=O)c1cnc(Cl)c(Cl)c1)C1CCCCC1 | > 100 µM (inactive) | < 4.00 | > 95 µM (inactive) | < 4.02 | < 4.02 | –
COC(=O)c1cccc(NC(=S)NCCC2=CCCCC2)c1 | > 100 µM (inactive) | < 4.00 | > 95 µM (inactive) | < 4.02 | < 4.02 | –
CC(C)NC(=O)c1c(CSc2ccccc2)noc1C(=O)NCc1ccccc1 | > 100 µM (inactive) | < 4.00 | > 95 µM (inactive) | < 4.02 | < 4.02 | –
COc1ccc(Nc2nc(-c3cccnc3)nc3ccccc23)cn1 | inactive | 4.26 | > 95 µM (inactive) | < 4.02 | < 4.02 | –
CCOC(=O)C(NC(=O)CC(C)C)(Nc1sc(C)c(CC)c1C#N)C(F)(F)F (stereo not given) | > 100 µM (inactive) | < 4.00 | > 95 µM (inactive) | < 4.02 | < 4.02 | –
COC(=O)c1ccn(C(=O)c2ccc(Cl)cc2)n1 | > 100 µM (inactive) | < 4.00 | > 95 µM (inactive) | < 4.02 | < 4.02 | –
CCC1CCCCN1CCCNC(=O)C1CCCN(S(=O)(=O)N2CC(C)CC(C)C2)C1 (stereo not given) | – | 5.20 | > 95 µM (inactive) | < 4.02 | < 4.02 | 5.20
C=CCN(CC=C)C(=O)C1CC(=O)N(c2ccc(Br)cc2)C1 (stereo not given) | > 100 µM (inactive) | < 4.00 | > 95 µM (inactive) | < 4.02 | < 4.02 | –
O=C(Nc1cccc(C(F)(F)F)c1)C1Cc2c(-c3cccc(F)c3)ccnc2O1 (stereo not given) | > 100 µM (inactive) | < 4.00 | > 95 µM (inactive) | < 4.02 | < 4.02 | –
CC(C)C1=C2CCCCC2NC(=O)N1 (stereo not given) | > 100 µM (inactive) | < 4.00 | > 95 µM (inactive) | < 4.02 | < 4.02 | –
CCN(CC)C(=O)c1cccc(-c2csc(C(NC(C)=O)c3cccc(OC)c3)n2)c1 (stereo not given) | > 100 µM (inactive) | < 4.00 | > 95 µM (inactive) | < 4.02 | < 4.02 | –
COC(=O)C[C@H]1c2cc(F)ccc2S(=O)(=O)N1C(C)C | > 100 µM (inactive) | < 4.00 | > 95 µM (inactive) | < 4.02 | < 4.02 | –
OCCCc1n[nH]c(=S)n1-c1ccccc1 | > 100 µM (inactive) | < 4.00 | > 95 µM (inactive) | < 4.02 | < 4.02 | –
NS(=O)(=O)c1ccc(CNC(=S)NCc2ccc(F)cc2)cc1 | > 100 µM (inactive) | < 4.00 | > 95 µM (inactive) | < 4.02 | < 4.02 | –
CCOc1ccccc1C1CC(=O)NC2=C1C(=O)CC(C)(C)C2 (stereo not given) | > 100 µM (inactive) | < 4.00 | > 95 µM (inactive) | < 4.02 | < 4.02 | –
NS(=O)(=O)c1cccnc1Nc1cccc(Cl)c1Cl | > 100 µM (inactive) | < 4.00 | > 95 µM (inactive) | < 4.02 | < 4.02 | –
CCC1CCCCN1C(=S)Nc1ccc(OC(F)F)cc1 (stereo not given) | inactive | 4.48 | > 95 µM (inactive) | < 4.02 | < 4.02 | –
Cc1ccc(NC(=S)Nc2cccc3ccccc23)cc1 | > 100 µM (inactive) | < 4.00 | > 95 µM (inactive) | < 4.02 | < 4.02 | –
O=C(NCCN1CCOCC1)c1cc(-c2ccc(F)cc2)on1 | > 100 µM (inactive) | < 4.00 | > 95 µM (inactive) | < 4.02 | < 4.02 | –
Cc1nc2c(OCCC3CCCCC3)cccn2c1N(C)C(=O)CCC1CCCC1 | > 100 µM (inactive) | < 4.00 | > 95 µM (inactive) | < 4.02 | < 4.02 | –
